# Source: ChEMBL document CHEMBL3045909, “Synthesis and antitumor studies of novel benzopyrano-1,2,3-selenadiazole and spiro[benzopyrano]-1,3,4-thiadiazoline derivatives” (Med Chem Res, 2013)
# Activity calls are given as the source filed them. No cut-off for these calls is given here.
# Key:
# Mus musculus [1] = assay: Increase in hematocrit content in Ehrlich ascites carcinoma xenografted Swiss albino Mus musculus (mouse) blood at 20 mg/kg, ip qd for 9 days administered at 24 hr after tumour cell inoculation measured on day 14 post-tumor cell implantation (reference value: 35.50%); assay type: functional; conditions: route intraperitoneal
# Mus musculus [2] = assay: Increase in hemoglobin content in Ehrlich ascites carcinoma xenografted Swiss albino Mus musculus (mouse) blood at 20 mg/kg, ip qd for 9 days administered at 24 hr after tumour cell inoculation measured on day 14 post-tumor cell implantation (reference value: 8.70 g/dl); assay type: functional; conditions: route intraperitoneal
# [3] = Antitumor activity against Ehrlich ascites carcinoma cells xenografted in Swiss albino Mus musculus (mouse) assessed as carcinoma cell viability at 20 mg/kg, ip qd for 5 days administered at 24 hr after tumour cell inoculation by trypan blue assay (reference value: 220x10^6/ml); assay type: functional; conditions: route intraperitoneal
# HepG2 = assay: Cytotoxicity against Homo sapiens (human) HepG2 cells assessed as inhibition of cell survival after 96 hr; assay type: functional, cell-based; conditions: HepG2, 96 h
# WI-38 = assay: Cytotoxicity against Homo sapiens (human) WI38 cells assessed as inhibition of cell survival after 96 hr; assay type: functional, cell-based; conditions: WI-38, 96 h
# Vero = assay: Cytotoxicity against Chlorocebus aethiops (African green monkey) Vero cells assessed as inhibition of cell survival after 96 hr; assay type: functional, cell-based; conditions: Chlorocebus sabaeus
# MCF7 = assay: Cytotoxicity against Homo sapiens (human) MCF7 cells assessed as inhibition of cell survival after 96 hr; assay type: functional, cell-based; conditions: MCF7, 96 h
# [4] = Acute toxicity in ip dosed Ehrlich ascites carcinoma xenografted Swiss albino Mus musculus (mouse) assessed as mortality administered once a day for 9 days at 24 hr after tumour cell inoculation; assay type: organism-based; conditions: in vivo
# Mus musculus [5] = assay: Acute toxicity in Ehrlich ascites carcinoma xenografted Swiss albino Mus musculus (mouse) assessed as decrease in locomotor activity at >500 mg/kg, ip qd for 9 days administered at 24 hr after tumour cell inoculation; assay type: organism-based; conditions: in vivo
# Mus musculus [6] = assay: Neurotoxicity in Ehrlich ascites carcinoma xenografted Swiss albino Mus musculus (mouse) assessed as effect on tremor, twitch, jumping, drowsy at >500 mg/kg, ip qd for 9 days administered at 24 hr after tumour cell inoculation; assay type: toxicity, organism-based; conditions: in vivo
# [7] = Antitumor activity against Ehrlich ascites carcinoma cells xenografted in Swiss albino Mus musculus (mouse) assessed as increase in lifespan at 20 mg/kg, ip qd for 9 days administered at 24 hr after tumour cell inoculation; assay type: functional; conditions: route intraperitoneal
# [8] = Antitumor activity against Ehrlich ascites carcinoma cells xenografted in Swiss albino Mus musculus (mouse) assessed as mean survival time at 20 mg/kg, ip qd for 9 days administered at 24 hr after tumour cell inoculation (reference value: 9.10/day); assay type: functional; conditions: route intraperitoneal
# Ehrlich [9] = assay: Antitumor activity against Ehrlich ascites carcinoma cells xenografted in Swiss albino Mus musculus (mouse) assessed as decrease in tumour size at 50 mg/kg, ip qd for 9 days administered at 24 hr after tumour cell inoculation; assay type: functional, organism-based; design: dose 50 mg/kg
# Ehrlich [10] = assay: Antitumor activity against Ehrlich ascites carcinoma cells xenografted in Swiss albino Mus musculus (mouse) assessed as decrease in abdominal ascites at 50 mg/kg, ip qd for 9 days administered at 24 hr after tumour cell inoculation; assay type: functional, organism-based; design: dose 50 mg/kg
# Ehrlich [11] = assay: Antitumor activity against Ehrlich ascites carcinoma cells xenografted in Swiss albino Mus musculus (mouse) assessed as decrease in tumour size at 20 mg/kg, ip qd for 9 days administered at 24 hr after tumour cell inoculation; assay type: functional, organism-based; design: dose 20 mg/kg
# Ehrlich [12] = assay: Antitumor activity against Ehrlich ascites carcinoma cells xenografted in Swiss albino Mus musculus (mouse) assessed as decrease in abdominal ascites at 20 mg/kg, ip qd for 9 days administered at 24 hr after tumour cell inoculation; assay type: functional, organism-based; design: dose 20 mg/kg
# Mus musculus [13] = assay: Increase in hematocrit content in Ehrlich ascites carcinoma xenografted Swiss albino Mus musculus (mouse) blood at 50 mg/kg, ip qd for 9 days administered at 24 hr after tumour cell inoculation measured on day 14 post-tumor cell implantation (reference value: 35.50%); assay type: functional; conditions: route intraperitoneal
# Mus musculus [14] = assay: Increase in hemoglobin content in Ehrlich ascites carcinoma xenografted Swiss albino Mus musculus (mouse) blood at 50 mg/kg, ip qd for 9 days administered at 24 hr after tumour cell inoculation measured on day 14 post-tumor cell implantation (reference value: 8.70 g/dl); assay type: functional; conditions: route intraperitoneal
# [15] = Antitumor activity against Ehrlich ascites carcinoma cells xenografted in Swiss albino Mus musculus (mouse) assessed as carcinoma cell viability at 50 mg/kg, ip qd for 5 days administered at 24 hr after tumour cell inoculation by trypan blue assay (reference value: 220x10^6/ml); assay type: functional; conditions: route intraperitoneal
# [16] = Antitumor activity against Ehrlich ascites carcinoma cells xenografted in Swiss albino Mus musculus (mouse) assessed as increase in lifespan at 50 mg/kg, ip qd for 9 days administered at 24 hr after tumour cell inoculation; assay type: functional; conditions: route intraperitoneal
# [17] = Antitumor activity against Ehrlich ascites carcinoma cells xenografted in Swiss albino Mus musculus (mouse) assessed as mean survival time at 50 mg/kg, ip qd for 9 days administered at 24 hr after tumour cell inoculation (reference value: 9.10/day); assay type: functional; conditions: route intraperitoneal
SMILES,IC50 (HepG2) [µM],IC50 (WI-38) [µM],IC50 (Vero) [µM],IC50 (MCF7) [µM],other results
CCC1(C)Oc2ccc(O)cc2-c2nn[se]c21 (stereo not drawn),50,50,60,60,Activity (Mus musculus [1]): 43.7%; Activity (Mus musculus [2]): 10.5 g/dL; Activity [3]: 107 ×10⁶ /ml; LD50 at 9 days [4]: 247 mg/kg; Activity (Mus musculus [5]): Toxic; Activity (Mus musculus [6]): Non-toxic; Activity [7]: 73.63%; MST [8]: 15.8 days; inhibition (Ehrlich [9]): Active; inhibition (Ehrlich [10]): Active; inhibition (Ehrlich [11]): Active; inhibition (Ehrlich [12]): Active
Oc1ccc2c(c1)-c1nn[se]c1C1(CCCC1)O2,60,70,60,60,
O=C1CC2(CCCCC2)Oc2ccc(O)cc21,190,210,90,90,
NC(=S)N/N=C1\CC2(CCCCCC2)Oc2ccc(O)cc21,1440,1510,1440,1620,
NC(=S)N/N=C1\CC2(CCCCC2)Oc2ccc(O)cc21,820,1120,840,1340,
CC1(C)C/C(=N\NC(N)=S)c2cc(O)ccc2O1,140,120,150,140,
CC1(C)C/C(=N\NC(N)=O)c2cc(O)ccc2O1,120,140,170,150,
CCC1(C)CC2(SC(NC(C)=O)=NN2C(C)=O)c2cc(OC(C)=O)ccc2O1 (stereo not drawn),620,840,630,1010,
CC1(C)Oc2ccc(O)cc2-c2nn[se]c21,60,70,50,60,
CCC1(C)CC(=O)c2cc(O)ccc2O1 (stereo not drawn),150,150,150,150,
Oc1ccc2c(c1)-c1nn[se]c1C1(CCCCC1)O2,90,110,100,120,
CC(=O)NC1=NN(C(C)=O)C2(CC3(CCCC3)Oc3ccc(OC(C)=O)cc32)S1 (stereo not drawn),50,40,40,50,
NC(=O)N/N=C1\CC2(CCCC2)Oc2ccc(O)cc21,100,100,90,110,
CC(=O)NC1=NN(C(C)=O)C2(CC(C)(C)Oc3ccc(OC(C)=O)cc32)S1 (stereo not drawn),30,30,30,30,Activity (Mus musculus [1]): 45%; Activity (Mus musculus [2]): 11.9 g/dL; Activity [3]: 110 ×10⁶ /ml; LD50 at 9 days [4]: 248 mg/kg; Activity (Mus musculus [5]): Toxic; Activity (Mus musculus [6]): Non-toxic; Activity [7]: 98.9%; MST [8]: 18.1 days; inhibition (Ehrlich [9]): Active; inhibition (Ehrlich [10]): Active; inhibition (Ehrlich [11]): Active; inhibition (Ehrlich [12]): Active
O=c1[nH]cc(F)c(=O)[nH]1 [FLUOROURACIL],70,20,,20,Activity (Mus musculus [13]): 42.3%; Activity (Mus musculus [14]): 10 g/dL; Activity [15]: 123 ×10⁶ /ml; Activity [16]: 72.53%; MST [17]: 15.7 days
O=C1CC2(CCCC2)Oc2ccc(O)cc21,460,510,740,640,
CCC1(C)C/C(=N\NC(N)=S)c2cc(O)ccc2O1 (stereo not drawn),60,60,60,60,
CCC1(C)C/C(=N\NC(N)=O)c2cc(O)ccc2O1 (stereo not drawn),60,70,50,70,
CC(=O)NC1=NN(C(C)=O)C2(CC3(CCCCC3)Oc3ccc(OC(C)=O)cc32)S1 (stereo not drawn),70,80,80,80,
CC1(C)CC(=O)c2cc(O)ccc2O1,480,430,420,410,
Oc1ccc2c(c1)-c1nn[se]c1C1(CCCCCC1)O2,1150,1610,1190,1490,
NC(=S)N/N=C1\CC2(CCCC2)Oc2ccc(O)cc21,100,100,90,100,
NC(=O)N/N=C1\CC2(CCCCC2)Oc2ccc(O)cc21,150,160,80,70,
O=C1CC2(CCCCCC2)Oc2ccc(O)cc21,1450,1430,1320,1510,
NC(=O)N/N=C1\CC2(CCCCCC2)Oc2ccc(O)cc21,1120,1120,1130,1120,
